Test results published in patent US9878015B2, “Pharmaceutical compositions and methods for the treatment of metastatic cancer” (IMMUNE SYSTEM KEY LTD., priority 2013, dated 2018).
“Also recorded” adds a separate entry of the source. Where no end group is shown, it is not given here.

Legend:
[1] = system: adenocarcinoma pancreatic cancer cells, cell line 2; assay: Radius cell migration assay, cell line 2; format: cell-based, human; settings: cell line 2, Nerofe 10 μg/ml
Protocol: (§1) Cell Migration Assay of Human Cancer Cell
(§2) Human adenocarcinoma pancreatic cancer cells were grown until reaching 70-80% cell density in the flask and detached from the flask using Trypsin EDTA as described above. Cells suspended in medium and Trypsin were then centrifuged 10 minutes at 300 g (4° C.) and re-suspended in 2 ml fresh medium (as described for the BrdU incorporation assay above).
(§3) The cells were then fluidized and 3 ml medium were added such that the cells were suspended in a volume of 5 ml medium and subsequently counted and diluted to a concentration of 150,000 or 300,000 cells/ml medium.
(§4) Alternatively, Dulbecco's modification of Eagle's medium (DMEM, Biological Industries cat no. 01-055-1A) supplemented with 50 ml FBS (Biological industries cat no. 04-121-1A), 5 ml Hepes 1M (Biological industries cat no. 03-025-1C), 0.5 ml Amphotericin B 2500 μg/ml (Biological industries cat no. 03-029-1) and 5 ml Gentamycin sulfate 50 mg/ml (Biological industries cat no. 03-035-1) was used for cell culturing and re-suspension and the cells were re-suspended to a final concentration of 100,000 cells/ml medium.
(§5) A radius 96-well Cell Migration Assay plate (Cell Biolabs Inc. cat no. CBA-126) was prepared according to the manufacturer's protocol and each well was loaded with 100 μl cells such that each well contained 10,000, 15,000 or 30,000 cells. […]

[2] = system: human adenocarcinoma pancreatic cancer cells; assay: Cell migration assay after 48 hours pre-incubation with peptide; format: cell-based; settings: 25 μg/ml peptide for 48 hours before assay; 27 hours vs 1 hour; FIG. 3, FIG. 4
Protocol: as §2, §4
Alternatively, the supernatant was discarded and replaced by 200 μl DMEM containing 2.5% 1-BS and the required treatment, namely control (without Nerofe), 10, 25 or 50 μg/ml Nerofe. The cells were then incubated at 37° C. for 48 hours in an incubator.
When the cells reached 70-80% density, the supernatant was discarded and the gel was removed from the center of the well, without affecting the attachment of cells as described in the manufacturer's protocol. […]

[3] = system: soluble ST2 (sST2) secreted by human adenocarcinoma pancreatic cancer cells; assay: Soluble ST2 (sST2) ELISA assay, pancreatic cancer cells; format: cell-based; settings: 1-50 μg/ml peptide; all tested cells; FIG. 2
Protocol: (§6) Soluble ST2 (sST2) ELISA Assay
(§7) Human adenocarcinoma pancreatic cancer cells and human breast cancer cells (MDA-MB-231) were grown until reaching 70-80% cell density in the flask and were detached from the flask using Trypsin EDTA as described above. Cells suspended in medium and Trypsin were then centrifuged and re-suspended in 2 ml fresh medium (as described for the BrdU incorporation assay above).
(§8) The cells were then fluidized and 3 ml medium were added to the cell suspension such that the cells were re-suspended in a total volume of 5 ml medium. The cells were then counted and diluted to a concentration of 50,000 cells/ml medium. Cells at 2 ml per plate were placed in each well of a 6 well plate such that each well contained 100,000 cells. The cells were incubated over-night in 37° C. in the incubator.
(§9) The supernatant was discarded and replaced by 1 ml RPMI medium containing 2.5% FBS. The cells were then incubated for 24 or 48 hours in 37° C. in the presence of the Nerofe peptide at the final concentrations of 1, 10, 25 and 50 μg/ml. […]
(§10) Detecting of sST2 was performed by diluted anti-sST2 Affinity purified antibody (Genmed, project ID 35622 B-Form) 1:100 in diluent (0.05% TW-20, 0.1% BSA in PBS), where 100 μl of the detection antibody was loaded on each well. […] Plate absorbance was performed in a microplate reader at O.D. of 450/590 nm.

[4] = system: tissue plasminogen activator (TPA) secreted by human adenocarcinoma pancreatic cancer cells; assay: Tissue type plasminogen activator (TPA) human ELISA assay on cell supernatant; format: cell-based; settings: 1-50 μg/ml peptide, 24 hours; cell line 1, 2 and 3; FIG. 1
Protocol: Tissue Type Plasminogen Activator (TPA) Human ELISA Assay
as §7, with “cells” for “cells and human breast cancer cells (MDA-MB-231)”, “70-80%” for “70-80% cell”, “assay,” for “assay”
The cells were then fluidized and 3 ml medium were added to the cell suspension such that the cells were re-suspended in a total volume of 5 ml medium. Cells were counted and diluted to a concentration of 50,000 cells/ml medium. Next, the cells were placed in each well of a 6 well plate (Nunc cat no. 140675), by placing 2 ml cells culture per well such that each well contains 100,000 cells. The cells were next incubated over-night at 37° C. in the incubator.
The supernatant was discarded and replaced by 1 ml RPMI medium containing 2.5% FBS. Cells were then incubated for 24 hours or 48 hours at 37° C. in the presence of the Nerofe peptide at the final concentrations of 1, 10, 25 and 50 μg/ml. […]
Next, a TPA ELISA assay was performed as follows: the supernatant was thawed and kept on ice, then diluted 1:15 with the TPA diluents provided with the kit (x1N, Abcam cat no. ab108914). The procedure was continued according to the manufacturer's protocol and ELISA plates were read at an optical density (O.D.) of 450/590.

[5] = system: vascular endothelial growth factor (VEGF); assay: Clinical study: serum level of VEGF in cancer patients (ELISA); format: in vivo, human
Protocol: Therefore a clinical study that follows the serum levels of VEGF was conducted in cancer patients that were administered with the peptide Nerofe. Patients participating in the study were diagnosed with various cancer types, namely colon, colorectal, spindle cell neoplasm, pancreas, small intestine, non small cell lung carcinoma, hepatic carcinoma, colon adenocarcinoma and rectal adenocarcinoma, as summarized in Table 3 below.
Patients were included in at least one of Cohort 1, Cohort 2, Cohort 3 and Cohort 4 and received doses of […] (about 0.16, 0.32, 0.64 or 1.28 mg/kg body weight) of the peptide Nerofe, respectively, at the indicated time points.
Serum levels of VEGF were measured in blood samples obtained form these patients using an Elisa kit for human VEFG (R&D systems) and the results are presented in FIG. 5 (for the patients of Cohort 1 and Cohort 2) and in FIG. 6 (for the patients of Cohort 3 and Cohort 4).

[6] = system: adenocarcinoma pancreatic cancer cells, cell line 1; assay: Radius cell migration assay, cell line 1; format: cell-based, human; settings: cell line 1, Nerofe 10 μg/ml
Protocol: as §1, §2, §3, §4, §5

[7] = system: various cancer cells of hematopoietic origin; settings: inhibitory effect defined as at least 40% inhibition vs control; cited from earlier work
[8] = system: soluble ST2 (sST2) in human breast cancer cells (MDA-MB-231); assay: Soluble ST2 (sST2) ELISA assay, breast cancer cells; format: cell-based; settings: MDA-MB-231, similar assay conditions, data not shown
Protocol: as §6, §7, §8, §9, §10

[9] = system: human adenocarcinoma pancreatic cancer cells; assay: Bromodeoxyuridine (BrdU) incorporation assay (cell proliferation); format: cell-based; settings: 1, 10, 25 and 50 μg/ml peptide vs control; no correlation with concentration
Protocol: Bromodeoxyuridine (BrdU) Incorporation Assay
Human adenocarcinoma pancreatic cancer cells and human breast cancer cells were grown until reaching 70-80% density in the flask and detached from the flask using Trypsin EDTA as described above (the above protocol for cell culturing was used until the step of adding 10 ml medium to the Trypsin-treated cells). The cells suspended in medium and Trypsin were then transferred into a 50 ml conical tube and centrifuged at 300 g (10 min, 4° C.). The supernatant was then discarded and the cell pellet was re-suspended in fresh medium (2 ml medium prepared as described above).
The cells were then fluidized and additional 3 ml medium were added to the cell suspension such that the cells were re-suspended in a total volume of 5 ml medium. The cells were then counted and diluted to a concentration of 20,000 cells/ml medium. Next, the cells were placed in a 96 well plate (Nunc cat no. 167008), placing 100 μl cell suspension per well, such that each well contained 2000 cells. The cells were then incubated over-night in 37° C. in the incubator.
The concentrated Nerofe peptide was suspended in a total volume of 100 μl medium and added to the assayed cells in the 96-well plate to a final concentration of 1, 10, 25 and 50 μg/ml. Control (background) assays were performed in the absence of the peptide, namely, 100 μl medium was added to control cells. […]

[10] = system: tumor; settings: adult Balb/C mice model; cited from earlier work

| Sequence | % inhibition of migration ([1]; 8 hours) [%] | % Migration after 8 hours ([1]; control = 100) [%] | migration of cells into cell-free area [2] | level of sST2 compared to cells not incubated with the peptide [3] | level of secreted TPA compared to control cells [4] | change of serum level of VEGF ([5]; cancer patients, Cohort 1 and Cohort 2, 6 or 12 mg/m^2, FIG. 5) | decrease of serum level of VEGF ([5]; cancer patients, Cohort 3 and Cohort 4, 24 or 48 mg/m^2, FIG. 6) | decrease of serum level of VEGF in single patients ([5]; patients 13 (small intestine) and 19 (rectal adenocarcinoma)) | % inhibition of migration ([6]; 8 hours) [%] | % Migration after 8 hours ([6]; control = 100) [%] | cell proliferation [7] | decrease in the level of sST2 [8] | inhibition of BrdU incorporation [9] | tumor size [10] |
| --- | --- | --- | --- | --- | --- | --- | --- | --- | --- | --- | --- | --- | --- | --- |
| WWTFFLPSTLWERK [Nerofe, C-terminal 14 all D amino acid fragment of the full T101 peptide, …] | 82 | 18 | substantially inhibited | lower levels of sST2; also recorded: dose-dependent | lower levels of secreted TPA | increase | 30-40% | particularly significant | 30 | 70 | inhibit cell proliferation | about 80% | up to 26% | – |
| LHLWLSGEPVQSSGTKDMRSKSDSKRVSDKQLISKAVWWTFFLPSTLWERK (isolated synthetic peptide (fragment of T 101 peptide)) [T101 peptide, Full length thymus peptide, devoid of its N-terminal 33 amino acids; 51 amino acids long] | – | – | – | – | – | – | – | – | – | – | – | – | – | significantly reduce tumor size |
